Measured values from patent US4148795A, “Dithiocarbamate ester bactericides and fungicides” (American Cyanamid Company, priority 1976, dated 1979).
Several values for one entry are separate records, joined by “and”; a condition that tells them apart may be missing. Equal values may be shown once. Read-outs that look alike come from different tables or passages of the source.

Assays:
[1] = system: Aspergillus niger; test: Spore germination inhibition; assay type: cell-based; details: 24 hours
Text: (§1) The test procedure involves the preparation of a 100, 10 or 1 ppm. suspension of test compound in water. The solutions are placed in one dram "opticlear" vials and separately inoculated with one drop of a spore suspension prepared from seven-day cultures of Aspergillus niger and 14-day old cultures of Monilinia fructicola and Stemphylium sarcinaeforme,all grown on potato-dextrose agar. The vials containing the separately inoculated solutions of test compounds are then capped and placed on a rotating tumbler for 24 hours to assure contact of the organism with the test compound. After 24 hours, the vials are removed and examined for inhibition of […].

[2] = system: Monilinia fructicola; test: Spore germination inhibition; assay type: cell-based; details: for inhibition at 1 ppm / inhibition at 10 ppm: 24 hours; for inhibition at 100 ppm: 24 h, read-out: % Inhibition of Spore Germination
Text: as §1

[3] = system: Stemphylium sarcinaeforme; test: Spore germination inhibition; assay type: cell-based; details: Stemphylium sarciniforme; for inhibition at 100 ppm: 24 h, read-out: % Inhibition of Spore Germination; for inhibition at 1 ppm / inhibition at 10 ppm: 24 hours
Text: as §1

[4] = system: Aerobacter aerogenes; assay type: cell-based; details: 100 ppm; subcultures 72 hours at 37° C; note: key: 0: No Effect; 9: Kill of Bacteria; 5: Stasis, but not Kill of all Bacteria
[5] = system: Staphylococcus aureus; assay type: cell-based; details: 100 ppm; subcultures 72 hours at 37° C; note: key: 0: No Effect; 9: Kill of Bacteria; 5: Stasis, but not Kill of all Bacteria
[6] = system: Xanthomonas vesicatoria; assay type: cell-based; details: 100 ppm; subcultures 72 hours at 37° C; note: key: 0: No Effect; 9: Kill of Bacteria; 5: Stasis, but not Kill of all Bacteria
[7] = system: Aspergillus niger; test: Agar dilution plate; assay type: cell-based; details: An; 100 ppm, 72 hours at 23° C
Experimental: (§2) Test compounds were incorporated in a Sabouraud's dextrose agar in an amount sufficient to provide the active ingredient in a concentration of about 100 ppm. A twenty-ml. sample of the agar mixture is placed in a petri dish and permitted to solidify. An agar sample is inoculated with the test organism set forth below and then covered and incubated for a period of about 72 hours at 23° C. After incubation, growth observations are made. The test results are recorded and the test is repeated twice for the purpose of comparison.
(§3) The data obtained with a variety of test organisms is shown in the table below, and ratings are shown as 0 or 5. O indicates no control, 5 indicates 100% effectiveness of the test compound against the specified organism.

[8] = system: Fusarium lycopersici; test: Agar dilution plate; assay type: cell-based; details: Fl; 100 ppm, 72 hours at 23° C
Experimental: as §2, §3

[9] = system: Monilinia fructicola; test: Agar dilution plate; assay type: cell-based; details: Mf; 100 ppm, 72 hours at 23° C
Experimental: as §2, §3

[10] = system: Pythium de Baryanum; test: Agar dilution plate; assay type: cell-based; details: Pd; 100 ppm, 72 hours at 23° C
Experimental: as §2, §3

[11] = system: Rhizoctonia solani; test: Agar dilution plate; assay type: cell-based; details: Rs; 100 ppm, 72 hours at 23° C
Experimental: as §2, §3

[12] = system: Stemphylium sarcinaeforme; test: Agar dilution plate; assay type: cell-based; details: Ss; 100 ppm, 72 hours at 23° C
Experimental: as §2, §3
Ss= Stemphylium sarcinaeforme

[13] = system: Pseudomonas solaracaerum; assay type: cell-based
[14] = system: Collectotrichum lagenarium; test: Agar dilution plate; assay type: cell-based; details: Cl; 100 ppm, 72 hours at 23° C
Experimental: as §2, §3
Cl= Collectotrichum lagenarium

[15] = system: Verticillium albo-atrum; test: Agar dilution plate; assay type: cell-based; details: Va; 100 ppm, 72 hours at 23° C
Experimental: as §2, §3
Va= Verticillium albo-atrum

[16] = system: Piricularia oryzae; assay type: in vivo; parameters: scale not given here; details: Rice Blast, five days
[17] = system: Phytophthora infestans; assay type: in vivo; parameters: scale not given here; details: Tomato Late Blight, five days
[18] = system: Venturia inaequalis; details: in vivo; note: key: 5: clean, no disease; 4: trace of disease; 3: slight disease; 2: moderate disease; 1: severe disease; 0: like controls

CCC(CSC(=S)N(C)C)[N+](=O)[O-] (stereo not shown) [Example 6, 2-Nitrobutyl Dimethyldithiocarbamate]
inhibition at 1 ppm [1]: 0%
inhibition at 10 ppm [1]: 100%
inhibition at 100 ppm [1]: 100%
inhibition at 1 ppm [2]: 100%
inhibition at 10 ppm [2]: 100%
inhibition at 100 ppm [2]: 100%
inhibition at 100 ppm [3]: 100%
inhibition at 1 ppm [3]: 100%
inhibition at 10 ppm [3]: 100%
Antibacterial Activity rating [4]: 9
Antibacterial Activity rating [5]: 9
Antibacterial Activity rating [6]: 9
Agar Dilution Plate rating [7]: 5 (100% effectiveness of the test compound against the specified organism)
Agar Dilution Plate rating [8]: 5 (100% effectiveness of the test compound against the specified organism)
Agar Dilution Plate rating [9]: 5 (100% effectiveness of the test compound against the specified organism)
Agar Dilution Plate rating [10]: 5 (100% effectiveness of the test compound against the specified organism)
Agar Dilution Plate rating [11]: 5 (100% effectiveness of the test compound against the specified organism)
Agar Dilution Plate rating [12]: 5 (100% effectiveness of the test compound against the specified organism)
Agar Dilution Plate rating ([13]; 100 ppm, 72 hours at 23° C): 0
Agar Dilution Plate rating [14]: 5 (100% effectiveness of the test compound against the specified organism)
Agar Dilution Plate rating [15]: 5 (100% effectiveness of the test compound against the specified organism)

CC(=O)C(CSC(=S)N(C)C)=C(C)O [Example 9, 2-(1-Hydroxyethylidene)-3-oxobutyl Dimethyldithiocarbamate]
inhibition at 1 ppm [1]: 0%
inhibition at 10 ppm [1]: 0%
inhibition at 100 ppm [1]: 100%
inhibition at 1 ppm [2]: 0%
inhibition at 10 ppm [2]: 0%
inhibition at 100 ppm [2]: 100%
inhibition at 100 ppm [3]: 100%
inhibition at 1 ppm [3]: 0%
inhibition at 10 ppm [3]: 0%
Antibacterial Activity rating [4]: 0
Antibacterial Activity rating [5]: 5
Antibacterial Activity rating [6]: 0
Agar Dilution Plate rating [7]: 0
Agar Dilution Plate rating [8]: 0
Agar Dilution Plate rating [9]: 0
Agar Dilution Plate rating [10]: 0
Agar Dilution Plate rating [11]: 0
Agar Dilution Plate rating [12]: 0
Agar Dilution Plate rating ([13]; 100 ppm, 72 hours at 23° C): 0
Agar Dilution Plate rating [14]: 5 (100% effectiveness of the test compound against the specified organism)
Agar Dilution Plate rating [15]: 0
disease control index ([16]; 150 ppm): 0
disease control index ([16]; 300 ppm): 2
disease control index ([16]; 600 ppm): 3
disease control index ([16]; 1200 ppm): 4

CC(=O)C(CSC(=S)N(C)C)SC(=S)N(C)C (stereo not shown) [Example 10, Acetylethylene Dimethyldithiocarbamate]
inhibition at 1 ppm [1]: 100%
inhibition at 10 ppm [1]: 100%
inhibition at 100 ppm [1]: 100%
inhibition at 1 ppm [2]: 100%
inhibition at 10 ppm [2]: 100%
inhibition at 100 ppm [2]: 100%
inhibition at 100 ppm [3]: 100%
inhibition at 1 ppm [3]: 100%
inhibition at 10 ppm [3]: 100%
Antibacterial Activity rating [4]: 9
Antibacterial Activity rating [5]: 9
Antibacterial Activity rating [6]: 5
Agar Dilution Plate rating [7]: 5 (100% effectiveness of the test compound against the specified organism)
Agar Dilution Plate rating [8]: 5 (100% effectiveness of the test compound against the specified organism)
Agar Dilution Plate rating [9]: 5 (100% effectiveness of the test compound against the specified organism)
Agar Dilution Plate rating [10]: 5 (100% effectiveness of the test compound against the specified organism)
Agar Dilution Plate rating [11]: 5 (100% effectiveness of the test compound against the specified organism)
Agar Dilution Plate rating [12]: 5 (100% effectiveness of the test compound against the specified organism)
Agar Dilution Plate rating [13]: 0
Agar Dilution Plate rating [14]: 5 (100% effectiveness of the test compound against the specified organism)
Agar Dilution Plate rating [15]: 5 (100% effectiveness of the test compound against the specified organism)
disease control index ([17]; at 100 ppm): 4
disease control index ([17]; at 500 ppm): 5
disease control index ([16]; at 75 ppm): 4
disease control index ([16]; at 500 ppm): 5

CN(C)C(=S)SCC(SC(=S)N(C)C)C(=O)c1ccccc1 (stereo not shown) [Example 11]
Antibacterial Activity rating [4]: 0
Antibacterial Activity rating [5]: 5
Antibacterial Activity rating [6]: 0
Agar Dilution Plate rating [7]: 0
Agar Dilution Plate rating [8]: 0
Agar Dilution Plate rating [9]: 5 (100% effectiveness of the test compound against the specified organism)
Agar Dilution Plate rating [10]: 0
Agar Dilution Plate rating [11]: 0
Agar Dilution Plate rating [12]: 0
Agar Dilution Plate rating ([13]; 100 ppm, 72 hours at 23° C): 0
Agar Dilution Plate rating [14]: 5 (100% effectiveness of the test compound against the specified organism)
Agar Dilution Plate rating [15]: 0
disease control index ([17]; at 100 ppm): 3
disease control index ([17]; at 500 ppm): 4
disease control index ([16]; at 75 ppm): 3
disease control index ([16]; at 500 ppm): 4
disease control index [18]: 5

CN(C)C(=S)SC(C[N+](=O)[O-])c1ccc(Cl)cc1Cl (stereo not drawn) [Example 17, 2,4-Dichloro-α-(nitromethyl)benzyl Dimethyldithiocarbamate]
Antibacterial Activity rating [4]: 0
Antibacterial Activity rating [5]: 5
Antibacterial Activity rating [6]: 0
Agar Dilution Plate rating [7]: 0
Agar Dilution Plate rating [8]: 0
Agar Dilution Plate rating [9]: 0
Agar Dilution Plate rating [10]: 0
Agar Dilution Plate rating [11]: 0
Agar Dilution Plate rating [12]: 0
Agar Dilution Plate rating ([13]; 100 ppm, 72 hours at 23° C): 0
Agar Dilution Plate rating [14]: 5 (100% effectiveness of the test compound against the specified organism)
Agar Dilution Plate rating [15]: 5 (100% effectiveness of the test compound against the specified organism)
disease control index ([17]; 150 ppm): 0
disease control index ([17]; 300 ppm): 4
disease control index ([17]; 600 ppm): 5
disease control index ([17]; 1200 ppm): 5
disease control index ([16]; 150 ppm): 3
disease control index ([16]; 300 ppm): 5
disease control index ([16]; 600 ppm): 5
disease control index ([16]; 1200 ppm): 5
disease control index [18]: 5 and 0

CC(C)c1ccc(C(C[N+](=O)[O-])SC(=S)N(C)C)cc1 (stereo not drawn) [Example 26, p-Isopropyl-α-(nitromethyl)benzyl Dimethyldithiocarbamate]
Antibacterial Activity rating [4]: 0
Antibacterial Activity rating [5]: 5
Antibacterial Activity rating [6]: 0
Agar Dilution Plate rating [7]: 0
Agar Dilution Plate rating [8]: 0
Agar Dilution Plate rating [9]: 5 (100% effectiveness of the test compound against the specified organism)
Agar Dilution Plate rating [10]: 5 (100% effectiveness of the test compound against the specified organism)
Agar Dilution Plate rating [11]: 5 (100% effectiveness of the test compound against the specified organism)
Agar Dilution Plate rating [12]: 5 (100% effectiveness of the test compound against the specified organism)
Agar Dilution Plate rating ([13]; 100 ppm, 72 hours at 23° C): 0
Agar Dilution Plate rating [14]: 5 (100% effectiveness of the test compound against the specified organism)
Agar Dilution Plate rating [15]: 5 (100% effectiveness of the test compound against the specified organism)
disease control index ([17]; 150 ppm): 3
disease control index ([17]; 300 ppm): 4
disease control index ([17]; 600 ppm): 4
disease control index ([17]; 1200 ppm): 5
disease control index ([16]; 150 ppm): 4
disease control index ([16]; 300 ppm): 4
disease control index ([16]; 600 ppm): 5
disease control index ([16]; 1200 ppm): 5
disease control index [18]: 5 and 0
